Assays:
[1] = system: MOLM-13 cells; test: Proliferation assay of FLT3 inhibitor with telaglenastat, HSA analysis; assay type: cell-based, human; details: MOLM-13, 48 hours
Method: Proliferation assay of a range of doses of midostaurin or gilteritinib with telaglenstat on MOLM-13 cells treated for 48 hours. Highest single agent (HSA) analysis was used to determine regions of synergy.
FLT3-ITD inhibition reduces glutaminolysis by blocking glutamine influx through SLC1A5, the primary glutamine transporter^15,16. SLC38A2 can serve as a redundant glutamine transporter to compensate the deficiency of SLC1A5^17.

[2] = system: MV4-11 cells; test: Pairwise dose combination synergy, MTS cell viability, HSA analysis; assay type: cell-based
Method: (§1) For dinaciclib, cells were treated for 2 hours with the drug before it was washed off and all other drugs were incubated with cells for 48-96 hours. Cell viability was measured with MTS. HSA analysis was used to determine regions of synergy. […] MOLM-13 and MV4-11 cells were treated with vehicle, 50 nM or 100 nM brequinar in combination with vehicle, 4 nM or 8 nM gilteritinib for 96 hours before cells were fixed and permeabilized for intracellular BV421-Ki67 staining and flow cytometry analysis. […] Primary cells were treated with vehicle, single agents or drug combination before cell apoptosis was measured with Annexin V/PI staining. Results are shown as mean±SEM of 3 biological replicates. […] Bone marrow cells from 3 FLT3-ITD patients, 2 FLT3-WT patients and 2 healthy donors were seeded into Methocult at 50,000 cells per condition with vehicle, single agents or drug combinations. The numbers of colonies were quantified for 1st and 2nd platings after 14 days post seeding. Results are shown as means of 2 biological replicates. * p<0.05 in comparison with EPZ015666, dinaciclib or brequinar alone.
(§2) Next, it was determined whether pharmacologic inhibition of CDK9, DHODH or PRMT5, using commercially available inhibitors (brequinar for DHODH, dinaciclib for CDK1/2/5/9, and EPZ015666 for PRMT5) is synergistic with gilteritinib in AML cells.

[3] = system: MOLM-13 cells; test: as above; assay type: cell-based, human
Method: as §1, §2

[4] = system: MOLM-13 luciferase cells; test: MOLM-13-Luc+ FLT3-ITD AML xenograft in NCG mice; assay type: in vivo, mouse; details: 10 mg/kg dinaciclib weekly i.p., 30 mg/kg gilteritinib daily oral gavage, or both; vehicle 24 days
Method: (A) NCG mice were engrafted with MOLM-13 cells expressing luciferase and treated with vehicle, 10 mg/kg dinaciclib weekly, 30 mg/kg gilteritinib daily, or dinaciclib/gilteritinib combination.
Animal Studies All animal studies were carried out under protocols approved by The Ohio State University Institutional Animal Care and Use Committee (IACUC). 1×10^5 MOLM-13 luciferase cells were injected via tail vein into male NOD-Prkdc^em26Cd52Il2rg^em26Cd22/NjuCrl (NCG) from the Charles River Laboratory. On day 4 post-engraftment, mice were randomized to treatment arms. Mice received the following drugs and doses: weekly intraperitoneal injections of 10 mg/kg dinaciclib (MedChemExpress HY-10492) in 20% cyclodextrin (CTD THPB-P) diluted just prior to injection, daily oral gavage of 30 mg/kg gilteritinib (MedChemExpress HY-1432) in 6% drug w/w gelucire 44/14 (Gattefosse, France) aliquoted and mixed with drug weekly, oral gavage of vehicle control (gelucire 44/14), or combination therapy at single-agent regimens.

[5] = system: shRNA-stable MOLM-13 cells; test: Annexin V/PI flow cytometry of shRNA-stable cells treated with gilteritinib; assay type: cell-based, human; details: 8 nM gilteritinib, 120 hours
Method: (A-D) Knockdown efficiency of selected targets by shRNA as detected by qPCR and Western blotting; GAPDH or β-actin serves as loading control. N=2. *p<0.05; **p<0.01; (E-H) Dose-response curves of shCDK9, shDHODH, shPRMT5 and shCDK7-stable MOLM-13 cells in response to 120-hour gilteritinib treatment. Cell viability was measured with MTS. Results are shown as mean±SEM of 4 technical replicates and 3-4 biological replicates. ***p-value<0.0001; ns=not significant. I) Knockdown of CDK9, PRMT5 or DHODH but not CDK7 with shRNA increases the frequency of apoptotic AML cell lines with gilteritinib. Parental, scrambled or gene-targeting shRNA-stable MOLM-13 cells were treated with 8 nM gileritinib for 120 hours and stained with Annexin V/PI for flow cytometry analysis. Data are shown as mean±SEM of % population from triplicates.
DHODH, CDK9 and PRMT5 genes were selected for validation, in light of their strong synergistic interactions with gilteritinib and availability of clinical grade inhibitors. MOLM-13 cells were transduced with shRNA targeting each of these genes and knockdown efficiencies were confirmed via qPCR and Western Blotting (FIG. 2A-D). Scrambled or gene-targeting shRNA transduced cells were treated with gilteritinib (2-25 nM dose range) for 120 hours followed by MTS analysis to quantify cell proliferation.

[6] = gilteritinib paired with dinaciclib or EPZ015666
[7] = gilteritinib paired with dinaciclib or EPZ015666, dinaciclib 2 hours then washed off, others 48-96 hours

## O=C(Cc1cccc(OC(F)(F)F)c1)Nc1ccc(CCCCc2nnc(NC(=O)Cc3ccccn3)s2)nn1 [telaglenastat]
[1]
  cytotoxic effect in combination with gilteritinib: synergistic cytotoxic effect
  cytotoxic effect in combination with midostaurin: synergistic cytotoxic effect

## CCc1cnn2c(NCc3ccc[n+]([O-])c3)cc(N3CCCC[C@H]3CCO)nc12 [dinaciclib]
[2]; [6]
  maximum synergy (drug concentration): 0.0075 to 0.01 nM
[3]; [7]
  synergy range (drug concentration): 0.0075 to 0.01 nM
[4]
  mean survival time: 27.5 days

## CCc1nc(C(N)=O)c(Nc2ccc(N3CCC(N4CCN(C)CC4)CC3)c(OC)c2)nc1NC1CCOCC1 [gilteritinib]
[5]; knockdown of CDK9
  increase of necroptotic/apoptotic cells vs scrambled control: 9 fold
[5]; knockdown of DHODH
  increase of necroptotic/apoptotic cells vs scrambled control: 5 fold
[5]; knockdown of PRMT5
  increase of necroptotic/apoptotic cells vs scrambled control: 2.6 fold
[2]; [6]
  maximum synergy (drug concentration): 0.1 to 8 nM
[3]; [7]
  synergy range (drug concentration): 2 to 10 nM
[4]
  mean survival time: 39 days

## O=C(NC[C@H](O)CN1CCc2ccccc2C1)c1cc(NC2COC2)ncn1 [EPZ015666]
[2]; in combination with 0.1-8 nM gilteritinib
  maximum synergy (drug concentration): 3000 to 100000 nM
[3]; in combination with 2-10 nM gilteritinib
  synergy range (drug concentration): 1000 to 100000 nM

— patent US20250009740A1, “METHODS AND COMPOSITIONS FOR TARGETING ALTERNATIVE METABOLISM ALONG WITH FLT3 INHIBITOR-MEDIATED ANTILEUKEMIC ACTIONS” (Ohio State Innovation Foundation, priority 2021, published 2025)
